Key:
[1] = tested on: A2780 ovarian cancer cells; experiment: Proliferation assay (Alamar Blue); type: cell-based; settings: Homo sapiens, 96 h, 4-day incubation, read-out: pIC50 (negative log value of the IC50-value) (converted)
Experimental: Cellular activity of the compounds of formula (I) was determined on A2780 tumour cells using a colorimetric assay for cell toxicity or survival (see example C.2).
The human A2780 ovarian cancer cells were a kind gift from Dr. T. C. Hamilton (Fox Chase Cancer Centre, Pennsylvania, U.S.A.). The cells were cultured in RPMI 1640 medium supplemented with 2 mM L-Glutamine, 50 μg/ml gentamicin and 10% fetal calf serum.
Resazurin was purchased from Aldrich (Prod. No. 199303). Potassium ferrocyanide, potassium ferricyanide, KH2PO4 and K2HPO4 were purchased from Sigma (Prod. Nos. P9387, P8131, P5655 and P8281, respectively).
Potassium Phosphate Buffer 0.1 M (PPB) was made as follows: 2.72 gram KH2PO4 and 13.86 gram K2HPO4 were dissolved in 500 ml milli-Q H2O, the pH was adjusted to pH 7.4 and the volume was brought to 1 liter with milli-Q H2O; the buffer was filter sterilised and stored at room temperature. Resazurin stock solution (PPB-A) was prepared fresh by dissolving 45 mg resazurin in 15 ml PBS. 30 mM potassium ferricyanide (PPB-B) was prepared by dissolving 0.987 gram potassium ferricyanide in 100 ml PPB. 30 mM potassium ferrocyanide (PPB-C) was prepared by dissolving 1.266 gram potassium ferrocyanide in 100 ml PPB.
Mixture of PPB-A, PPB-B and PPB-C was prepared by mixing equal volumes of the respective solutions. Resazurin work solution (herein termed “Alamar Blue” solution) was prepared by diluting said mixture 20× (vol/vol) in PPB and filter sterilising; the Alamar Blue solution could be kept at 4° C. for a maximum of 2 weeks.
For experiments in 384 wells plates the cells were seeded at a density of 5×10^3 cells/ml in Falcon 384-well culture plates (Life Technologies, Merelbeke, Belgium), black with clear bottom, in 45 μl culture medium. Cells were allowed to adhere to plastic for 24 hr. The tested compound was pre-diluted (1/50 in culture medium) and 5 μl pre-diluted compound was added to the wells. Following 4-day incubation, 10 μl of the Alamar Blue solution was added to each well and the cells were further incubated for 5 hrs (A2780) at 37° C. The fluorescence intensity was measured for each well with a Fluorescence plate reader (Fluorskan, Labsystems, 540 nm excitation and 590 nm emission)
The antiproliferative activity was calculated as percentage of remaining viable cells in treated versus control (untreated cells) conditions. Within an experiment, the result for each experimental condition is the mean of 3 replicate wells. When appropriate, the experiments were repeated to establish full concentration-response curves. When appropriate, IC50-values (concentration of the drug, needed to reduce cell growth to 50% of the control) were computed using probit analysis for graded data (Finney, D. J., Probit Analyses, 2nd Ed. Chapter 10, Graded Responses, Cambridge University Press, Cambridge 1962). Herein the effects of test compounds are expressed as pIC50 (the negative log value of the IC50-value) (see Table 4).

[2] = tested on: p53 in A2780 cells; experiment: p53 ELISA (preservation of p53 in A2780 cells); type: cell-based; settings: Homo sapiens, treated with compound for 16 hours, read-out: p53-elisa LAD (lowest dose giving at least 140% of the value for p53 present in the control)
Experimental: The capacity of the compounds to preserve p53 in A2780 cells was measured with the p53 enzyme linked immunosorbent assay (ELISA). The p53 assay is a “sandwich” enzyme immunoassay employing two polyclonal antibodies. A polyclonal antibody, specific for the p53 protein, has been immobilized onto the surface of the plastic wells. Any p53 present in the sample to be assayed will bind to the capture antibody. The biotinylated detector polyclonal antibody also recognizes p53 protein, and will bind to any p53, which has been retained by the capture antibody. The detector antibody, in turn, is bound by horseradish peroxidase-conjugated streptavidin. The horseradish peroxidase catalyses the conversion of the chromogenic substrate o-phenylene diamine, the intensity of which is proportional to the amount of p53 protein bound to the plate. The coloured reaction product is quantified using a spectrophotometer. Quantitation is achieved by the construction of a standard curve using known concentrations of purified recombinant HIS tagged p53 protein (see example C.1).
A2780 cells (ATCC) were cultivated in RPMI 1640 supplemented with 10% fetal calf serum (FCS), 2 mM L-glutamine and gentamycin at 37° C. in a humidified incubator with 5% CO2.
A2780 cells were seeded at 20.000 cells per well in a 96 well plate, cultured for 24 hours and treated with compound for 16 hours at 37° C. in a humidified incubator. After incubation, the cells were washed once with phosphate-buffered saline and 30 μl, per well, low salt RIPA buffer (20 mM tris, pH7.0, 0.5 mM EDTA, 1% Nonidet P40, 0.5% DOC, 0.05% SDS, 1 mM PMSF, 1 μg/ml aprotinin and 0.5 μ/ml leupeptin) was added. Plates were placed on ice for 30 minutes to complete the lysis. p53 protein was detected in de lysates by using the sandwich ELISA, described below.
High binding polystyrene EIA/RIA 96 well plates (Costar 9018) were coated with the capture antibody pAb1801 (Abcam ab28-100) at a concentration of 1 μg/ml in coating buffer (0.1 M NaHCO3 pH8.2), 50 μl per well. The antibody was allowed to adhere overnight at 4° C. Coated plates were washed once with phosphate-buffered saline (PBS)/0.05% Tween 20 and 300 μl of blocking buffer (PBS, 1% bovine serum albumins (BSA)) was added, for an incubation period of 2 hours at room temperature. Dilutions of purified recombinant HIS tagged p53 protein, ranging from 3-200 ng/ml, were made in blocking buffer and used as standards.
Plates were washed twice with PBS/0.05% Tween 20 and blocking buffer or standards were added at 80 μl/well. To the standards, 20 μl of lysis buffer was added. The samples were added to the other wells at 20 μl lysate/well. After an overnight incubation at 4° C., plates were washed twice with PBS/0.05% Tween 20. Aliquots of 100 μl secondary polyclonal antibody p53(FL-393) (Tebubio, sc-6243) at a concentration of 1 μg/ml in blocking buffer were added to each well and allowed to adhere for 2 hours at room temperature. Plates were washed three times with PBS/0.05% Tween 20. Detection antibody anti-rabbit HRP (sc-2004, Tebubio) at 0.04 μg/ml in PBS/1% BSA was added and incubated for 1 hour at room temperature. Plates were washed three times with PBS/0.05% Tween 20 and 100 μl of substrate buffer was added (substrate buffer was prepared shortly before use by adding 1 tablet of 10 mg o-phenylene diamine (OPD) from Sigma and 125 μl 3% H2O2 to 25 ml OPD buffer: 35 mM citric acid, 66 mM Na2HPO4, pH5.6). After 5 to 10 minutes, colour reaction was stopped by adding 50 μl stop buffer (1 M H2SO4) per well. The absorbance at dual wavelengths of 490/655 nm was measured using a Biorad micro plate reader and the results were then analyzed.
For each experiment, controls (containing no drug) and a blank incubation (containing no cells or drugs) were run in parallel. The blank value was subtracted from all control and sample values. For each sample, the value of p53 (in absorbance units) was expressed as the percentage of the value for p53 present in the control. […]

Row | Compound | IC50 [1] [µM] | minimal effective concentration [2] [µM]
1 | OCc1cc(Nc2ccc3c(c2)OCCN3CCc2c[nH]c3ccccc23)ccn1 [Compound 22] | 2.29 | 1
2 | OC1CCc2c(Nc3ccc4c(c3)OC3(CCSCC3)CN4CCc3c[nH]c4ccccc34)ccnc21 (stereo not drawn) [Compound 26] | ~6.03 | 0.03
3 | OCc1cc(Nc2ccc3c(c2)OC2(CCSCC2)CN3CCc2c[nH]c3ccccc23)ccn1 [Compound 39] | ~4.79 | > 10
4 | c1ccc2c(CCN3CCOc4cc(Nc5ccncc5)ccc43)coc2c1 [Compound 49] | 4.79 | > 10
5 | Cc1cccc2c(CCN3CC(C)(C)Oc4cc(Nc5ccnc(CO)c5)ccc43)c[nH]c12 [Compound 38] | 3.72 | > 10
6 | OC1CCc2c(Nc3ccc4c(c3)OC3(CCCCC3)CN4CCc3c[nH]c4ccccc34)ccnc21 (stereo not drawn) [Compound 29] | ~5.13 | 10
7 | c1ccc2c(CCN3CCOc4cc(Nc5ccncc5)ccc43)csc2c1 [Compound 6] | 5.5 | > 10
8 | OC1CCc2c(Nc3ccc4c(c3)OC3(CCNCC3)CN4CCc3c[nH]c4ccccc34)ccnc21 (stereo not drawn) [Compound 31] | > 10 | > 10
9 | OCc1cc(Nc2ccc3c(c2)OC2(CCCCC2)CN3CCc2c[nH]c3ccccc23)ccn1 [Compound 41] | ~4.79 | > 10
10 | CN1CCN(CCc2c[nH]c3ccccc23)c2ccc(Nc3ccnc(CO)c3)cc21 [Compound 20] | 4.79 | 3
11 | OCc1cc(Nc2ccc3c(c2)OC2(CCNCC2)CN3CCc2c[nH]c3ccccc23)ccn1 [Compound 16] | > 10 | > 10
12 | O=C1COc2cc(Nc3ccncc3)ccc2N1CCc1c[nH]c2ccccc12 [Compound 4] | > 10 | > 10
13 | CC1(C)Oc2cc(Nc3ccncc3)ccc2N(CCc2c[nH]c3ccccc23)C1=O [Compound 63] | > 10 | > 10
14 | CN1CCC2(CC1)CN(CCc1c[nH]c3ccccc13)c1ccc(Nc3ccncc3)cc1O2 [Compound 51] | 3.02 | > 10

More lines, main results first:

Row | IC50 [1] [µM] | Compound | minimal effective concentration [2] [µM]
15 | > 10 | O=C1COc2cc(Nc3ccnc(CO)c3)ccc2N1CCc1c[nH]c2ccccc12 [Compound 21] | > 10
16 | 5.01 | OCc1cc(Nc2ccc3c(c2)OCCN3CCc2csc3ccccc23)ccn1 [Compound 67] | 10
17 | ~6.46 | COc1cccc2c(CCN3CCOc4cc(Nc5ccncc5)ccc43)c[nH]c12 [Compound 47] | > 10
18 | ~5.62 | Cc1cccc2c(CCN3CC4(CCCCC4)Oc4cc(Nc5ccnc6c5CCC6O)ccc43)c[nH]c12 (stereo not drawn) [Compound 25] | 0.03
19 | 3.55 | Cc1cccc2c(CCN3CC(C)Oc4cc(Nc5ccnc(CO)c5)ccc43)c[nH]c12 (stereo not drawn) [Compound 37] | > 10
20 | 2.45 | Cc1cccc2c(CCN3CC4(CCCCC4)Oc4cc(Nc5ccncc5)ccc43)c[nH]c12 [Compound 59] | > 10
21 | 2.57 | OC1CCc2c(Nc3ccc4c(c3)OC(c3ccoc3)CN4CCc3c[nH]c4ccccc34)ccnc21 (stereo not drawn) [Compound 5] | 0.3
22 | ~5.89 | CC1CN(CCc2c[nH]c3ccccc23)c2ccc(Nc3ccncc3)cc2O1 (stereo not drawn) [Compound 9] | > 10
23 | 6.92 | CCC1(C)CN(CCc2c[nH]c3ccccc23)c2ccc(Nc3ccnc(CO)c3)cc2O1 (stereo not drawn) [Compound 46] | > 10
24 | 2.19 | CC1(C)CN(CCc2c[nH]c3ccccc23)c2ccc(Nc3ccnc4c3CCC4O)cc2O1 (stereo not drawn) [Compound 77] | 3
25 | ~5.13 | OCc1cc(Nc2ccc3c(c2)OC(c2ccoc2)CN3CCc2c[nH]c3ccccc23)ccn1 (stereo not drawn) [Compound 35] | 3
26 | 3.63 | CCC1(C)CN(CCc2c[nH]c3ccccc23)c2ccc(Nc3ccncc3)cc2O1 (stereo not drawn) [Compound 54] | > 10
27 | 4.9 | OC1CCc2c(Nc3ccc4c(c3)OC3(CCCC3)CN4CCc3c[nH]c4ccccc34)ccnc21 (stereo not drawn) [Compound 28] | 3
28 | ~6.03 | O=C1COc2cc(Nc3ccnc4c3CCC4O)ccc2N1CCc1c[nH]c2ccccc12 (stereo not drawn) [Compound 2] | 1
29 | 5.62 | CC1CN(CCc2c[nH]c3ccccc23)c2ccc(Nc3ccnc4c3CCC4O)cc2O1 (stereo not drawn) [Compound 24] | 3
30 | 2.19 | CC(C)N1CCC2(CC1)CN(CCc1c[nH]c3ccccc13)c1ccc(Nc3ccnc4c3CCC4O)cc1O2 (stereo not drawn) [Compound 33] | > 10
31 | 8.13 | Fc1cc(Nc2ccncc2)cc2c1N(CCc1c[nH]c3ccccc13)CCO2 [Compound 50] | > 10
32 | 6.31 | OC1CCc2c(Nc3ccc4c(c3)OC3(CCOCC3)CN4CCc3c[nH]c4ccccc34)ccnc21 (stereo not drawn) [Compound 30] | > 10
33 | 5.01 | Cc1cccc2c(CCN3CC(C)(C)Oc4cc(Nc5ccnc6c5CCC6O)ccc43)c[nH]c12 (stereo not drawn) [Compound 44] | > 10
